# Measurements as given in patent publication US8592405B2, “Synergistic antimicrobial composition” (Dow Global Technologies LLC, priority 2009, dated 2013).
# “And” between values parts separate entries of the source, which are not always exact repeats. Equal entries are not always repeated.
# Legend:
# Format in all cases: cell-based
# [1] = system: Trentepohlia aurea + Trentepohlia odorata (Ta + To); experiment: Algal efficacy testing, modified ASTM 5589 (12-well, dry paint film); conditions: three weeks
# Method: (§1) Samples of white acrylic latex paint free of biocides were prepared in 50 ml aliquots. Each biocide was post added to give the necessary active ingredient concentration in the paint. The total biocides concentrations tested were 750, 1500, 2500 and 5000 ppm. After biocides addition, each sample was hand mixed for a minimum of 30 sec, followed by a 3 min run on the paint shaker (RED DEVIL). Each of the paint samples as well as a control sample (containing no biocide) were used to prepare films on black plastic-vinyl chloride/acetate copolymer panels (LENETA, Mahwah, N.J.) using a 3 mil bird bar applicator. The panels were thoroughly dried for 5 days avoiding direct exposure to sunlight. Square discs (15 mm^2) were cut out from each panel and were used as the substrate for fungal and algal efficacy tests. This sample size allowed for an agar border when the sample disc was placed into the well of the test plate.
# (§2) The appropriate media (BOLD'S 3N for Chlorophytes, BG-11 for Cyanobacteria, and PDA for fungi) were used to support microbial growth. The test plates were maintained at room temp (25° C.-26° C.), in a cycled light-dark environment, for 3 weeks for algae. Plates for fungal challenge tests were maintained at 30C for three weeks. At the end of incubation period the samples were scored for percent area covered by visible microbial growth.
# (§3) ASTM 5589 is a standard accelerated test method for determining resistance of various coatings (including paints) to algal defacement. To accommodate for high-throughput screening, this method was scaled down from petri plates to 12-well plates. A single coupon was placed with a pair of sterile forceps at the center of the agar plug (on top) with the painted surface facing upwards. Each well was inoculated with 150 μl of organism (1×10^8 cfu/ml) making sure that the whole surface (paint film as well as the agar surrounding it) was evenly covered. The plates were incubated at room temp (25° C.-26° C.) with cyclic exposure to light (OTT-Lite model #OTL4012P, 40 Watt, 26 KLumen) and dark phases, for a period of three weeks. The total area covered was evaluated at the end of each week according to percent area covered in 5% increments. While rating the plates, notations were made for zones of inhibition.
# (§4) The SI is calculated based on F. C. Kull et.
# [2] = system: Gleocapsa sp. (Gs); experiment: as above; conditions: at the Total conc, three weeks
# Method: as §1, §2, §3, §4
# [3] = system: Chlorella sp. + Chlorella kessleri (Cs + Ck); experiment: as above; conditions: at the Total conc, three weeks
# Method: as §1, §2, §3, §4
# [4] = system: Calothrix parientina (Cp); experiment: as above; conditions: three weeks
# Method: as §1, §2, §3, §4
# [5] = system: Oscillatoria sp. (Os); experiment: as above; conditions: at the Total conc, three weeks
# Method: as §1, §2, §3, §4
# [6] = system: Nostoc commune (Nc); experiment: as above; conditions: three weeks
# Method: as §1, §2, §3, §4
# [7] = system: Alternaria alternata (Aa); experiment: Fungal efficacy testing, modified ASTM 5590 (12-well, dry paint film); conditions: at the Total conc, three weeks
# Method: as §1, §2
# (§5) ASTM 5590 is a standard accelerated test method for determining resistance of various coatings (including paints) to fungal defacement. To accommodate for high-throughput screening, this method was scaled down from petri plates to 12-well plates. To set up the test, an agar plug was placed at the bottom of each well of the sterile 12-well plate. A single coupon was placed with a pair of sterile forceps at the center of the agar plug (on top) with the painted surface facing upwards. Each well was inoculated with 150 μl of organism (1×10^6 cfu/ml) making sure that the whole surface (paint film as well as the agar surrounding it) was evenly covered. The plates were incubated at 30° C. in presence of moisture, for a period of three weeks. The total percent area covered was evaluated and recorded at the end of each week after the 2nd week and recorded in increments of 5%.
# as §4
# [8] = system: Cladosporium herbarum (Ch); experiment: as above; conditions: at the Total conc, three weeks
# Method: as §1, §2, §5, §4
# [9] = system: Aureobasidium pullulans (Ap); experiment: as above; conditions: at the Total conc, three weeks
# Method: as §1, §2, §5, §4
# [10] = system: Trichoderma viride (Tv); experiment: as above; conditions: three weeks
# Method: as §1, §2, §5, §4
# [11] = system: Stachybotris chartarum (Sc); experiment: as above; conditions: three weeks
# Method: as §1, §2, §5, §4
# [12] = system: Penicillium funiculosum (Pf); experiment: as above; conditions: at the Total conc, three weeks
# Method: as §1, §2, §5, §4
# [13] = system: Aspergillus niger (An); experiment: as above; conditions: three weeks
# Method: as §1, §2
# as §5, with “5%. […]” for “5%.”
# [14] = system: Gs + Os (Gloeocapsa sp. + Oscillatoria sp.); experiment: Algal efficacy testing, modified ASTM 5589 (6-well, mixed inoculum, Example 4); conditions: four weeks; for Total conc, ppm: Gs + Os mixed inoculum, NE = no end point at the concentration tested; for % inhibition: Gs + Os, at the Total conc
# Method: (§6) A single or blend of biocides was post added into white acrylic latex paint free of biocides to give a maximum total active ingredient/s concentration tested. This paint was then diluted with a biocide free acrylic latex paint at concentrations range of 75 to 12.5% w/w to give desired concentrations for the testing. Depending on the type of biocide blends tested, the total biocides concentrations varies from 200 to 5000 ppm. After biocides addition or dilution each sample was hand mixed for at least a minute until uniformity is achieved. Each of the paint samples as well as a control sample (containing no biocide) were used to prepare films on black plastic-vinyl chloride/acetate copolymer panels (LENETA, Mahwah, N.J.) using a 3 mil bird bar applicator. The panels were thoroughly dried for at least 2 days avoiding direct exposure to sunlight. Square discs (0.5 inch^2, 13 mm^2) were cut out from each panel and were used as the substrate for fungal and algal efficacy tests. This sample size allowed for an agar border when the sample disc was placed into the well of the test plate. Each sample was tested in duplicate
# as §2, with “for four” for “for 3”, “at 30 C” for “at 30C”, “for four” for “for three”, “of the” for “of”
# as §3, with “6-well” for “12-well”, “upwards. Algal inoculums were prepared by mixing equal concentrations (1×10^6 cfu/ml) and equal volumes (depending on number of samples to be inoculated) of like growing organisms. In this study, Gloeocapsa sp. and Oscillatoria sp. were a mix of cyanobacteria grown on BG-11 media. Chlorella sp., Chlorella kessleri, and Nostoc commune are unicellular chlorphytes that were mixed and grown on Bold media. Trentepohlia aurea, Trentepohlia odorata, and Calotrix parientina are filamentous algae that were mixed and grown on Bold media.” for “upwards.”, “400” for “150”, “mixture (1×10^6” for “(1×10^8”, “four” for “three”
# [15] = system: Cp + To + Ta (Calotrix parientina, Trentepohlia odorata, Trentepohlia aurea); experiment: as above; conditions: four weeks; for Total conc, ppm: Cp + To + Ta mixed inoculum, NE = no end point at the concentration tested; for % inhibition: Cp + To + Ta, at the Total conc
# Method: as §6
# as §2, with “for four” for “for 3”, “at 30 C” for “at 30C”, “for four” for “for three”, “of the” for “of”
# as §3, with “6-well” for “12-well”, “upwards. Algal inoculums were prepared by mixing equal concentrations (1×10^6 cfu/ml) and equal volumes (depending on number of samples to be inoculated) of like growing organisms. In this study, Gloeocapsa sp. and Oscillatoria sp. were a mix of cyanobacteria grown on BG-11 media. Chlorella sp., Chlorella kessleri, and Nostoc commune are unicellular chlorphytes that were mixed and grown on Bold media. Trentepohlia aurea, Trentepohlia odorata, and Calotrix parientina are filamentous algae that were mixed and grown on Bold media.” for “upwards.”, “400” for “150”, “mixture (1×10^6” for “(1×10^8”, “four” for “three”
# [16] = system: Cs + Ck + Nc (Chlorella sp., Chlorella kessleri, Nostoc commune); experiment: as above; conditions: four weeks; for Total conc, ppm: Cs + Ck + Nc mixed inoculum, NE = no end point at the concentration tested; for % inhibition: Cs + Ck + Nc, at the Total conc
# Method: as §6
# as §2, with “for four” for “for 3”, “at 30 C” for “at 30C”, “for four” for “for three”, “of the” for “of”
# as §3, with “6-well” for “12-well”, “upwards. Algal inoculums were prepared by mixing equal concentrations (1×10^6 cfu/ml) and equal volumes (depending on number of samples to be inoculated) of like growing organisms. In this study, Gloeocapsa sp. and Oscillatoria sp. were a mix of cyanobacteria grown on BG-11 media. Chlorella sp., Chlorella kessleri, and Nostoc commune are unicellular chlorphytes that were mixed and grown on Bold media. Trentepohlia aurea, Trentepohlia odorata, and Calotrix parientina are filamentous algae that were mixed and grown on Bold media.” for “upwards.”, “400” for “150”, “mixture (1×10^6” for “(1×10^8”, “four” for “three”
# [17] = system: Ch + Tv (Cladosporium herbarum + Trichoderma viride); experiment: Fungal efficacy testing, modified ASTM 5590 (6-well, mixed inoculum, Example 4); conditions: four weeks; for Total conc, ppm: Ch + Tv mixed inoculum, NE = no end point at the concentration tested; for % inhibition: Ch + Tv, at the Total conc
# Method: [The source words this procedure for another target and reports this target under the same test.] as §4, §6
# as §2, with “for four” for “for 3”, “at 30 C” for “at 30C”, “for four” for “for three”, “of the” for “of”
# as §5, with “6-well” for “12-well”, “upwards. Fungal inoculums were prepared by mixing equal concentrations (1×10^6 cfu/ml) and equal volumes (depending on number of samples to be tested) of like growing organisms. Cladosporium herbarum was mixed with Aureobasidium pullulans. Aspergillus niger was mixed with Penicillium funiculosum. Alternaria alternata was mixed with Trichoderma viride.” for “upwards.”, “400” for “150”, “organism mixture” for “organism”, “four” for “three”
# [18] = system: An + Pf (Aspergillus niger + Penicillium funiculosum); experiment: as above; conditions: four weeks; for Total conc, ppm: An + Pf mixed inoculum, NE = no end point at the concentration tested; for % inhibition: An + Pf, at the Total conc
# Method: as §4, §6
# as §2, with “for four” for “for 3”, “at 30 C” for “at 30C”, “for four” for “for three”, “of the” for “of”
# as §5, with “6-well” for “12-well”, “upwards. Fungal inoculums were prepared by mixing equal concentrations (1×10^6 cfu/ml) and equal volumes (depending on number of samples to be tested) of like growing organisms. Cladosporium herbarum was mixed with Aureobasidium pullulans. Aspergillus niger was mixed with Penicillium funiculosum. Alternaria alternata was mixed with Trichoderma viride.” for “upwards.”, “400” for “150”, “organism mixture” for “organism”, “four” for “three”
# [19] = system: Aa + Ap (Alternaria alternata + Aureobasidium pullulans); experiment: as above; conditions: four weeks; for Total conc, ppm: Aa + Ap mixed inoculum, NE = no end point at the concentration tested; for % inhibition: Aa + Ap, at the Total conc
# Method: [The source words this procedure for another target and reports this target under the same test.] as §4, §6
# as §2, with “for four” for “for 3”, “at 30 C” for “at 30C”, “for four” for “for three”, “of the” for “of”
# as §5, with “6-well” for “12-well”, “upwards. Fungal inoculums were prepared by mixing equal concentrations (1×10^6 cfu/ml) and equal volumes (depending on number of samples to be tested) of like growing organisms. Cladosporium herbarum was mixed with Aureobasidium pullulans. Aspergillus niger was mixed with Penicillium funiculosum. Alternaria alternata was mixed with Trichoderma viride.” for “upwards.”, “400” for “150”, “organism mixture” for “organism”, “four” for “three”
# [20] = total biocide in paint taken as minimum inhibitory concentration
# [21] = total biocide in paint taken as minimum inhibitory concentration, 30 C
Compound,"Total conc, ppm [14]",% inhibition [14],"Total conc, ppm [15]",% inhibition [15],"Total conc, ppm [16]",% inhibition [16],"Total conc, ppm [17]",% inhibition [17],"Total conc, ppm [18]",% inhibition [18],"Total conc, ppm [19]",% inhibition [19],further results
"CCCCNC(=O)OCC#CI [IPBC, 3-iodo-2-propynyl-butylcarbamate]",–,–,–,–,–,–,–,–,–,–,–,–,"% inhibition ([1]; at the Total conc): 85% and 82.5% and 72.5%; Total conc, ppm [1, 20]: 2500 ppm and 1500 ppm; % inhibition [2]: 95% and 50% and 80%; % inhibition [3]: 97.5% and 90% and 70%; % inhibition ([4]; at the Total conc): 97.5% and 90% and 80%; Total conc, ppm [4, 20]: 2500 ppm and 5000 ppm; % inhibition [5]: 70% and 62.5% and 77.5%; % inhibition ([6]; at the Total conc): 87.5% and 90% and 80%; Total conc, ppm [6, 20]: 1500 ppm and 2500 ppm; % inhibition [7]: 97.5% and 50% and 100%; % inhibition [8]: 75% and 80%; % inhibition [9]: 97.5% and 60% and 87.5%; % inhibition ([10]; at the Total conc): 90% and 72.5% and 62.5%; Total conc, ppm [10, 21]: 750 ppm and 1500 ppm; % inhibition ([11]; at the Total conc): 82.5%; Total conc, ppm [11, 21]: 2500 ppm; % inhibition [12]: 97.5% and 60% and 70%; % inhibition ([13]; at the Total conc): 87.5% and 80% and 75%; Total conc, ppm [13, 21]: 2500 ppm and 1500 ppm"
"CCCCCCCCn1sccc1=O [OIT, 2-n-octyl-4-isothiazolin-3-one]",1350 ppm,100%,1350 ppm,95%,1350 ppm,100%,450 ppm,50%,450 ppm,100%,1350 ppm,100%,–
"c1ccc2[nH]c(-c3cscn3)nc2c1 [TBZ, thiabendazole]",1875 ppm,100%,1875 ppm,95%,1250 ppm,100%,2500 ppm,50%,625 ppm,100%,3750 ppm,80%,–
zinc pyrithione [ZPT],625 ppm,100%,625 ppm,100%,1250 ppm,100%,–,–,1250 ppm,100%,2500 ppm,100%,–
